Test results from paper PMC3544137, “Isolation identification and biochemical characterization of a novel halo-tolerant lipase from the metagenome of the marine sponge Haliclona simulans” (Microbial Cell Factories, 2012).

Biological target: T1, Lpc53E1 (uncultured bacterium, UniProt I4AY78)
T1 construct: primer-encoded N-terminus MKSRLNDI
Test: p-nitrophenol release at […] nm, Lineweaver-Burk
Assay type: biochemical
Conditions: pH 7, 40 °C; unit printed as mM^-1 (presumably mM); unit of the source corrected

T1 sequence (I4AY78 1-387 limits assumed): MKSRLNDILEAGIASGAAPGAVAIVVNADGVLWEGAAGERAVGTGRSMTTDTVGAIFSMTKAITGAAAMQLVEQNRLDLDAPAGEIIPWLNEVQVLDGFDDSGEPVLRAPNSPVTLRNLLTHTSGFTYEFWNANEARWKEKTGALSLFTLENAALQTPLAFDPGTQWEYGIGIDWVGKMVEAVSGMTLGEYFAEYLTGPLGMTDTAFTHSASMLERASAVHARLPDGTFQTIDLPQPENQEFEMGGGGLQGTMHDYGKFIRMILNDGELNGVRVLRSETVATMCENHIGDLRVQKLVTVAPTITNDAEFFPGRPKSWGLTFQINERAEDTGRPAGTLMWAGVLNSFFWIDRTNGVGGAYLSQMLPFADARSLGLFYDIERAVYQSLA

KM: 1.09 mM
SMILES: CCCCCCCCCCCCCCCC(=O)Oc1ccc([N+](=O)[O-])cc1 [pNPP, p-nitrophenyl palmitate]
